# Source: PubChem BioAssay (NCI)
# “And” between values parts separate entries of the source, which are not always exact repeats. Equal values may be shown once.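 96-well plates; 48 h exposure; 5 concentrations. Endpoints by linear interpolation between flanking doses. Not reached: highest tested concentration assigned. GI50 is the concentration that inhibits growth by half. TGI: total growth inhibition.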
# Key:
# Assay in all cases: NCI anticancer screen, dose series, 48 h
# SR leukemia = system: SR leukemia
# NCI/ADR-RES ovarian = system: NCI/ADR-RES ovarian
# HT29 colon = system: HT29 colon
# HOP-92 NSCLC = system: HOP-92 NSCLC
# ACHN renal = system: ACHN renal
# NCI-H522 lung = system: NCI-H522 lung
# COLO 205 colon = system: COLO 205 colon
# M14 melanoma = system: M14 melanoma
# OVCAR-3 ovarian = system: OVCAR-3 ovarian
# T-47D breast = system: T-47D breast
Compound,GI50 (SR leukemia),TGI (SR leukemia),GI50 (NCI/ADR-RES ovarian),TGI (NCI/ADR-RES ovarian),GI50 (HT29 colon),TGI (HT29 colon),GI50 (HOP-92 NSCLC),TGI (HOP-92 NSCLC),GI50 (ACHN renal),TGI (ACHN renal),GI50 (NCI-H522 lung),TGI (NCI-H522 lung),GI50 (COLO 205 colon),TGI (COLO 205 colon),GI50 (M14 melanoma),TGI (M14 melanoma),GI50 (OVCAR-3 ovarian),TGI (OVCAR-3 ovarian),GI50 (T-47D breast),TGI (T-47D breast)
Fc1ccc2[nH]cc(Cc3c[nH]c4ccc(F)cc34)c2c1,31.1 µM,> 100 µM,17.2 µM,90 µM,31.4 µM,> 100 µM,15.4 µM,34.1 µM,26.1 µM,63 µM,14.3 µM,36.3 µM,28.2 µM,95.6 µM,20.2 µM,42.9 µM,19.5 µM,52.8 µM,20 µM,96.9 µM
COc1ccc(C(=O)/C=C/c2ccc(Cl)cc2)cc1S(=O)(=O)Nc1c(N)nc(SC)[nH]c1=O,3.57 µM,> 100 µM,40.1 µM,> 100 µM,2.93 µM,7.93 µM,2.59 µM,7.99 µM,3.23 µM,12.1 µM,1.88 µM,4.08 µM,1.76 µM,3.42 µM,2 µM,4.89 µM,1.94 µM,3.94 µM,2.45 µM,9.83 µM
O=S(=O)(c1ccc(NC(=S)NCc2cccnc2)cc1)N1CCCCC1,36.8 µM,> 100 µM,8.36 µM,> 100 µM,90.5 µM,> 100 µM,11.1 µM,> 100 µM,29.3 µM,> 100 µM,10.1 µM,> 100 µM,8.63 µM,> 100 µM,3.9 µM,> 100 µM,52.6 µM,> 100 µM,7.33 µM,> 100 µM
Cc1cc(N2CCCCC2)nc(N(CCNc2ccnc3cc(Cl)ccc23)Cc2ccco2)n1,1.77 µM,4.02 µM,1.79 µM,3.71 µM,1.05 µM,2.84 µM,5.73 µM,21.7 µM,2.72 µM,8.06 µM,1.61 µM,3.52 µM,1.49 µM,3.25 µM,1.82 µM,3.61 µM,1.74 µM,3.14 µM,1.82 µM,4.32 µM
CC1=C(C(=O)OCc2ccccc2)C(c2ccc3c(c2)OCO3)n2c(nc3ccccc32)N1 (centres undefined),0.4 µM,> 100 µM,0.311 µM,> 100 µM,0.352 µM,> 100 µM,> 100 µM,> 100 µM,0.63 µM,> 100 µM,0.164 µM,> 57.6 µM,0.417 µM,> 100 µM,0.418 µM,> 100 µM,0.235 µM,0.998 µM,0.508 µM,> 100 µM
O=C(O)[C@@H]1C2CC([C@@H]1C(=O)O)[C@H](N1C(=O)CCC1=O)[C@@H]2Br (some centres undefined),,> 100 µM,,> 100 µM,,> 100 µM,,> 100 µM,,> 100 µM,,> 100 µM,,> 100 µM,,> 100 µM,,> 100 µM,,> 100 µM
N#CSc1ncnc2nc[nH]c12,4.02 µM,32.2 µM,5.68 µM,> 100 µM,9.69 µM,> 100 µM,6.91 µM,> 94 µM,9.1 µM,> 100 µM,3.32 µM,25.6 µM,5.31 µM,22 µM,1.78 µM,> 100 µM,1.66 µM,> 31.6 µM,2.25 µM,> 80 µM
O=C(Nc1cccc(Cl)c1)Nc1ncc(CCNc2ncnc3ccsc23)s1,,20.8 µM and > 10 µM,1.34 µM and 1.6 µM,11.8 µM and > 10 µM,3.33 µM and 3.03 µM,23.1 µM and > 10 µM,0.549 µM and 1.55 µM,10.9 µM and > 10 µM,2.3 µM and 2.06 µM,16.8 µM and > 10 µM,1.76 µM and 1.34 µM,9.89 µM and > 10 µM,< 0.0105 µM and 0.00997 µM,8.36 µM and 3.88 µM,2.3 µM and 1.91 µM,11.6 µM and > 10 µM,4.06 µM and 1.06 µM,17.1 µM and > 10 µM,2.26 µM and 1.27 µM,7.5 µM and 5.63 µM
CCCN(Cc1ccc(F)cc1)c1ccc(CO)c(Cl)c1,13.6 µM,35.4 µM,9.52 µM,22.9 µM,4.78 µM,16.4 µM,2.66 µM,14.2 µM,9.98 µM,22.8 µM,9.5 µM,22.6 µM,3.96 µM,13.6 µM,14.3 µM,32.9 µM,0.662 µM,4.02 µM,0.119 µM,0.733 µM
Cn1c(=O)c2[nH]c(/N=N/N3CCN(CCO)CC3)nc2n(C)c1=O,,> 100 µM,,> 100 µM,,> 100 µM,,> 100 µM,,> 100 µM,,> 100 µM,,> 100 µM,,> 100 µM,,> 100 µM,,> 100 µM
NC(=O)[C@H]1CCN(c2ncnc(N)c2F)C[C@@H]1N1CCC[C@@H](Nc2cc(Cl)cc(C(F)(F)F)c2)C1=O,28.1 µM,83.8 µM,29.7 µM,> 100 µM,5.29 µM,55.1 µM,11.2 µM,40.7 µM,7 µM,76.3 µM,7.11 µM,28.4 µM,5.24 µM,34.2 µM,12.8 µM,36.8 µM,28.5 µM,> 100 µM,7.7 µM,76 µM
